Data taken from patent US4118561A, “7-(Substituted)-7H-pyrrolo[3,2-f]quinazoline-1,3-diamines” (priority 1977, dated 1978).
Values after ≈ are worked out from the molar mass of the structure shown.

Assays:
[1] = test system: E. coli 9637; experiment: In vitro antibacterial activity (MIC), E. coli 9637; conditions: Escherichia coli, 9637, 18 h
[2] = test system: Plasmodium berghei KBG 173; experiment: Antimalarial blood schizonticidal test in mice; format: in vivo, Plasmodium berghei (infected ICR/HA Swiss mice); set-up: ΔMST (increase in mean survival time): unit: days; conditions: s.c.; for minimal effective dose: Plasmodium berghei, sc, 1440 h, single dose, read-out: Min. Curing Dose; for minimal effective dose / Cure/Treat at Min. Curing Dose: 60-day survivors; for Cure/Treat at Min. Curing Dose: at the Min. Curing Dose
Text: In addition, the invention provides compounds which have antimalarial activity in vivo as evidenced by a standard blood schizonticidal test in mice infected with Plasmodium berghei KBG 173.
Utilizing young ICR/HA Swiss mice and a standard inoculum of Plasmodium berghei KBG 173, it is possible to produce a uniform disease fatal to 100% of untreated animals within 6 to 8 days with a mean survival time of 6.2 days. Test animals weigh from 18 to 22 grams but weight variations in any given experimental or control group are confined to 2-3 grams. All animals in any given test are approximately of the same age. Animals on test are housed in metal-topped plastic cages, given a standard laboratory diet and water ad libitum.
Test animals receive an intraperitoneal injection of 0.5 ml. of 1:100 dilution of heparinized heart's blood with a minimum of 90% parasitized cells (4 × 10^7 cells), drawn from donor mice infected one week earlier with Plasmodium berghei. The donor strain is maintained by weekly passages in separate groups of mice inoculated with a 0.5 ml. of 1:500 dilution of heparinized heart's blood.
Test compounds are administered after dissolution or suspension in peanut oil. A single dose is given subcutaneously 72 hours after the mice are infected with Plasmodium berghei. At this time a 10-15 percent parasitemia has developed; the disease is well established but has not produced sufficient debility to alter the response of the host to toxic effects of the drug on test. Since treatment is withheld for three days to permit the infection to become well established and death occurs in untreated controls within 6-8 days, it is felt that this system presents a candidate compound with the maximum challenge. In order to check factors such as changes in the infectivity of Plasmodium berghei or in the susceptibility of the host or to detect technical errors, a group of infected animals treated with pyrimethamine at dose levels producing definite increases in survival time is included in a positive control in every experiment.
In each experiment test compounds are administered in graded dosages. […] However, if an active drug is toxic for the host, its toxicity may become a limiting factor; continued increases in dose levels also increase the toxic effects and may result in the diminution of survival times. Deaths prior to the sixth day, when untreated controls begin to die, are regarded as nonparasitic and become the basis for toxicity evaluations. […] In calculating mean survival time, toxic deaths and 60-day survivors are not included.
Compounds are considered active which produce a cure in at least one test animal or which produce significant increases in mean survival times of the treated animals as compared with the mean survival times of untreated controls, provided that no drug related deaths (toxicity) are noted at the active dose.

[3] = test system: P. vulgaris 6896; experiment: In vitro antibacterial activity (MIC), P. vulgaris 6896; conditions: Proteus vulgaris, 6896, 18 h
[4] = test system: S. aureus 53-180; experiment: In vitro antibacterial activity (MIC), S. aureus 53-180; conditions: Staphylococcus aureus, 53180, 18 h
[5] = test system: S. aureus Smith; experiment: In vitro antibacterial activity (MIC), S. aureus Smith; conditions: Staphylococcus aureus, 18 h
[6] = test system: N. catarrhalis 8193; experiment: In vitro antibacterial activity (MIC), N. catarrhalis 8193; conditions: 18 h
[7] = test system: S. paratyphi 11737; experiment: In vitro antibacterial activity (MIC), S. paratyphi 11737; format: cell-based; conditions: Salmonella enterica, 18 h
[8] = test system: K. pneumoniae 10031; experiment: In vitro antibacterial activity (MIC), K. pneumoniae 10031; conditions: Klebsiella pneumoniae, 10031, 18 h

Row | Structure (SMILES) | MIC [1] [µg/mL] | minimal effective dose [2] [mg/kg] | Cure/Treat at Min. Curing Dose [2] | ΔMST (increase in mean survival time) ([2]; dose 2.5 mg. per kg.) | MIC [3] [µg/mL] | MIC [4] [µg/mL] | MIC [5] [µg/mL] | MIC [6] [µg/mL] | MIC [7] [µg/mL] | MIC [8] [µg/mL] | ΔMST (increase in mean survival time) ([2]; dose 40 mg. per kg.) | ΔMST (increase in mean survival time) ([2]; dose 320 mg. per kg.)
1 | Nc1nc(N)c2c(ccc3c2ccn3Cc2cccc(C(F)(F)F)c2)n1 [Example 12] | 0.976 (≈ 2.73 µM) | 5 | 1/5 | 7.5 | 62.5 (≈ 175 µM) | 0.244 (≈ 0.683 µM) | 0.488 (≈ 1.37 µM) | 0.122 (≈ 0.341 µM) | 7.81 (≈ 21.9 µM) | 0.488 (≈ 1.37 µM) |  | 
2 | Cc1ccccc1Cn1ccc2c3c(N)nc(N)nc3ccc21 [Example 19] | 0.976 (≈ 3.22 µM) | 40 | 3/5 |  | 7.81 (≈ 25.7 µM) | 0.488 (≈ 1.61 µM) | 0.488 (≈ 1.61 µM) | 0.0152 (≈ 0.0501 µM) | 3.9 (≈ 12.9 µM) | 0.122 (≈ 0.402 µM) | 8.4 | 
3 | Nc1nc(N)c2c(ccc3c2ccn3Cc2ccc3c(c2)OCO3)n1 [Example 38] | 7.81 (≈ 23.4 µM) | 10 | 2/5 | 12.2 | 31.3 (≈ 93.9 µM) | 1.95 (≈ 5.85 µM) | 7.81 (≈ 23.4 µM) | 0.244 (≈ 0.732 µM) | 15.6 (≈ 46.8 µM) | 1.95 (≈ 5.85 µM) |  | 
4 | Nc1nc(N)c2c(ccc3c2ccn3CC2CCCCC2)n1 [Example 54] | 1.95 (≈ 6.6 µM) |  |  |  | 3.9 (≈ 13.2 µM) | 3.9 (≈ 13.2 µM) | 7.81 (≈ 26.4 µM) | 0.0152 (≈ 0.0515 µM) | 7.81 (≈ 26.4 µM) | 0.488 (≈ 1.65 µM) | 8.5 | 
5 | CC(C)=CCn1ccc2c3c(N)nc(N)nc3ccc21 [Example 55] | 3.9 (≈ 14.6 µM) | 640 | 3/5 |  | 7.81 (≈ 29.2 µM) | 0.976 (≈ 3.65 µM) | 1.95 (≈ 7.29 µM) | 0.0038 (≈ 0.0142 µM) | 7.81 (≈ 29.2 µM) | 0.488 (≈ 1.83 µM) |  | 9.3
6 | Nc1nc(N)c2c(ccc3c2ccn3-c2ccnc3ccccc23)n1 [Example 87] | 0.488 (≈ 1.5 µM) |  |  |  | 1.95 (≈ 5.97 µM) | 0.0152 (≈ 0.0466 µM) | 0.031 (≈ 0.095 µM) | 0.031 (≈ 0.095 µM) | 0.976 (≈ 2.99 µM) | 0.031 (≈ 0.095 µM) |  | 
7 | Cc1cc(-n2ccc3c4c(N)nc(N)nc4ccc32)nc2ccccc12 [Example 88] | 62.5 (≈ 184 µM) |  |  |  | > 250 | 31.3 (≈ 92 µM) | 62.5 (≈ 184 µM) | 0.061 (≈ 0.179 µM) | > 250 | 31.3 (≈ 92 µM) |  | 
8 | Nc1nc(N)c2c(ccc3c2ccn3-c2ccnc3cc(Cl)ccc23)n1 [Example 89] | 15.6 (≈ 43.2 µM) |  |  |  | 250 (≈ 693 µM) | 0.122 (≈ 0.338 µM) | 0.488 (≈ 1.35 µM) | 0.244 (≈ 0.676 µM) | > 250 | 0.488 (≈ 1.35 µM) |  | 
9 | Nc1nc(N)c2c(ccc3c2ccn3-c2ccnc3cc(C(F)(F)F)ccc23)n1 [Example 90] | 0.244 (≈ 0.619 µM) |  |  |  | 250 (≈ 634 µM) | 0.031 (≈ 0.0786 µM) | 0.122 (≈ 0.309 µM) | 0.031 (≈ 0.0786 µM) | 31.3 (≈ 79.4 µM) | 0.244 (≈ 0.619 µM) |  | 
10 | Cc1cc(-n2ccc3c4c(N)nc(N)nc4ccc32)c2ccccc2n1 [Example 91] | 1.95 (≈ 5.73 µM) |  |  |  | 3.9 (≈ 11.5 µM) | 0.061 (≈ 0.179 µM) | 0.061 (≈ 0.179 µM) | 0.031 (≈ 0.0911 µM) | 1.95 (≈ 5.73 µM) | 0.061 (≈ 0.179 µM) |  | 
11 | Cc1nc2ccccc2nc1-n1ccc2c3c(N)nc(N)nc3ccc21 [Example 92] | 7.81 (≈ 22.9 µM) |  |  |  | > 250 | 0.488 (≈ 1.43 µM) | 1.95 (≈ 5.71 µM) | 0.122 (≈ 0.357 µM) | > 250 | 0.976 (≈ 2.86 µM) |  | 
12 | Nc1nc(N)c2c(ccc3c2ccn3-c2ccccc2C(F)(F)F)n1 [Example 93] | 0.244 (≈ 0.711 µM) |  |  |  | 1.95 (≈ 5.68 µM) | 0.031 (≈ 0.0903 µM) | 0.061 (≈ 0.178 µM) | 0.0076 (≈ 0.0221 µM) | 0.976 (≈ 2.84 µM) | 0.061 (≈ 0.178 µM) |  | 
13 | Nc1nc(N)c2c(ccc3c2ccn3-c2ccc([N+](=O)[O-])cc2C(F)(F)F)n1 [Example 94] | 31.3 (≈ 80.6 µM) |  |  |  | 125 (≈ 322 µM) | 0.122 (≈ 0.314 µM) | 0.122 (≈ 0.314 µM) | 0.061 (≈ 0.157 µM) | 62.5 (≈ 161 µM) | 0.488 (≈ 1.26 µM) |  | 
14 | Nc1nc(N)c2c(ccc3c2ccn3-c2cc(-c3ccccc3)nc3ccccc23)n1 [Example 95] | 250 (≈ 621 µM) |  |  |  | > 250 | 7.81 (≈ 19.4 µM) | 31.3 (≈ 77.8 µM) | 15.6 (≈ 38.8 µM) | > 250 | 250 (≈ 621 µM) |  | 
15 | Nc1ccc(-n2ccc3c4c(N)nc(N)nc4ccc32)cc1 [Example 96, 7-(4-Aminophenyl)-7H-pyrrolo[3,2-f]-quinazaline-1,3-diamine] | 0.244 (≈ 0.84 µM) |  |  |  | 0.976 (≈ 3.36 µM) | 0.244 (≈ 0.84 µM) | 0.488 (≈ 1.68 µM) | 0.0152 (≈ 0.0524 µM) | 0.488 (≈ 1.68 µM) | 0.031 (≈ 0.107 µM) |  | 
16 | Nc1nc(N)c2c(ccc3c2ccn3-c2nc3ccccc3s2)n1 [Example 97, 7-(2-Benzothiazolyl)-7H-pyrrolo-[3,2-f]quinazoline-1,3-diamine] | > 250 |  |  |  | > 250 | 125 (≈ 376 µM) | 250 (≈ 752 µM) | 0.488 (≈ 1.47 µM) | > 250 | 62.5 (≈ 188 µM) |  | 
17 | Cc1cc2c3c(N)nc(N)nc3ccc2n1C [Example 99] | 0.244 (≈ 1.07 µM) |  |  |  | 0.976 (≈ 4.29 µM) | 31.3 (≈ 138 µM) | 31.3 (≈ 138 µM) | 0.061 (≈ 0.268 µM) | 1.95 (≈ 8.58 µM) | 0.244 (≈ 1.07 µM) |  | 
18 | Cc1cc2c3c(N)nc(N)nc3ccc2n1Cc1cccc(C#N)c1 [Example 101] | 0.488 (≈ 1.49 µM) |  |  |  | 3.9 (≈ 11.9 µM) | 0.061 (≈ 0.186 µM) | 0.122 (≈ 0.372 µM) | 0.0038 (≈ 0.0116 µM) | 3.9 (≈ 11.9 µM) | 0.061 (≈ 0.186 µM) |  | 
19 | Cc1cc2c3c(N)nc(N)nc3ccc2n1Cc1ccc(C#N)cc1 [Example 102] | 1.95 (≈ 5.94 µM) |  |  |  | 31.3 (≈ 95.3 µM) | 0.976 (≈ 2.97 µM) | 0.976 (≈ 2.97 µM) | 0.061 (≈ 0.186 µM) | 7.81 (≈ 23.8 µM) | 0.244 (≈ 0.743 µM) |  | 
20 | Nc1nc(N)c2c(ccc3c2cc(Cl)n3Cc2ccccc2)n1 [Example 104, 8-Chloro-7-(phenylmethyl)-7H-pyrrolo-[3,2-f]quinazoline-1,3-diamine] | 3.9 (≈ 12 µM) |  |  |  | 31.3 (≈ 96.7 µM) | 0.976 (≈ 3.01 µM) | 3.9 (≈ 12 µM) | 0.061 (≈ 0.188 µM) | 7.81 (≈ 24.1 µM) | 0.244 (≈ 0.754 µM) |  | 
21 | Nc1nc(N)c2c(ccc3[nH]c(-c4ccccc4)cc32)n1 [Example 105, 8-Phenyl-7H-pyrrolo[3,2-f]-quinazoline-1,3-diamine] | 62.5 (≈ 227 µM) |  |  |  | > 250 | 15.6 (≈ 56.7 µM) | 7.81 (≈ 28.4 µM) | 62.5 (≈ 227 µM) | 125 (≈ 454 µM) | 31.3 (≈ 114 µM) |  | 
22 | Cn1c(-c2ccccc2)cc2c3c(N)nc(N)nc3ccc21 [Example 106, 7-Methyl-8-phenyl-7H-pyrrolo[3,2-f]-quinazoline-1,3-diamine] | > 250 |  |  |  | > 250 | 125 (≈ 432 µM) | 62.5 (≈ 216 µM) | 31.3 (≈ 108 µM) | > 250 | 3.9 (≈ 13.5 µM) |  | 
23 | Nc1nc(N)c2c(ccc3[nH]c4c(c32)CCCC4)n1 [Example 107, 8,9,10,11-Tetrahydro-7H-pyrimido-[4,5-c]carbazole-1,3-diamine] | 125 (≈ 493 µM) |  |  |  | > 250 | 125 (≈ 493 µM) | 62.5 (≈ 247 µM) | 125 (≈ 493 µM) | 125 (≈ 493 µM) | 125 (≈ 493 µM) |  | 
24 | Nc1nc(N)c2c(ccc3c2c2c(n3Cc3ccccc3)CCCC2)n1 [Example 108, 8,9,10,11-Tetrahydro-7-(phenylmethyl)-7H-pyrimido[4,5-c]carbazole-1,3-diamine] | > 250 |  |  |  | > 250 | 250 (≈ 728 µM) | > 250 | 0.122 (≈ 0.355 µM) | > 250 | > 250 |  | 
25 | Cn1c2c(c3c4c(N)nc(N)nc4ccc31)CCCC2 [Example 109, 8,9,10,11-Tetrahydro-7-methyl-7H-pyrimido[4,5-c]carbazole-1,3-diamine] | > 250 |  |  |  | > 250 | 62.5 (≈ 234 µM) | 62.5 (≈ 234 µM) | 3.9 (≈ 14.6 µM) | 250 (≈ 935 µM) | 62.5 (≈ 234 µM) |  | 
